Assay [1] deals with progranulin promoter. In words: Luciferase reporter assay in Neuro2A #48 cells (human GRN start codon fused to firefly luciferase). The assay is classed as cell-based, mouse. Particulars: for Luciferase activity over DMSO control: Neuro2A #48 cells, 24 hrs after compound addition, increasing concentrations. How it is done:
Plasmids and Cell Lines. The firefly luciferase coding sequence was fused by bacterial recombination to the authentic human GRN start codon in exon 2 (NM_002087.2) on a bacterial artificial chromosome (BACPAC RP11-812N09), and stably transfected Neuro-2a cells were derived.
Library Screening and Luciferase Reporter Assays. Neuro-2a cells were assayed in 384-well plates (3000 cells/well). 6 hrs after cell plating, 1200 Prestwick Chemical Library® compounds in DMSO, including internal controls, were dispensed using a BioMek FX system to final concentrations of 2.5 μM compound and 1% DMSO (unless indicated otherwise). Sodium butyrate (9 mM) was used as a positive control on each plate for initial screening. Luciferase activity was measured 24 hr after compound addition using Bright-Glo™ reagent (20 μl/well; Promega). Each well was normalized to the average luminescence from DMSO-treated wells on the same plate.
Technical details of HTS screen. Cell type used: Neuro-2a #48 cell line was cultured in DMEM (High glucose)/10%FBS/Pen-Strep/Zeocin (200 μg/mL) and plated in same media without Zeocin. All media is sterile filtered before use. The firefly luciferase coding sequence was fused by bacterial recombination to the authentic human GRN start codon in exon 2 (NM_002087.2) on a bacterial artificial chromosome (BACPAC RP11-812N09), and stably transfected Neuro-2a cells were derived (Cenik et al., 2011). Cells are put into single cell suspension and strained with 70 μm cell strainers before counting. The concentration of cells is adjusted to 150,000 cells/ml.
384 well plates were used for the assay: 50 μL of the cell suspension are added to each well for a final cell number per well of 7,500. Plates are spun down after plating and incubated at 37° C. under 5% CO2. Compound addition takes place 4 hours after plating. Test compounds are in columns 3-22. The vehicle control wells are in columns 2 and 23. The positive control, SAHA (3 μM), is plated in column 1 An untreated control (no DMSO) is in column 24. The plates are assayed for reporter activity 24 hrs after compound addition. All media is spun out of the plates and 20 μL of bright glo is added to each well and placed on shaker for 3-5 minutes. After shaking, plates are read and check from increases in activation over DMSO. Vehicle (DMSO) was used for baseline because it causes a slight activation of luciferase construct. […] All compounds were added from DMSO stocks and added at 0.5 μL per well (1% DMSO). All plates are read on an EnVision multilabel plate reader in luminescence mode. The data is then parsed into GeneData Screener v11 and quality controlled visually. Z′ values are calculated using the DMSO and SAHA controls. Plates that have a Z′ value less than 0.45 are further scrutinized. If the latter show systematic effects or if known errors occurred in these plates, they are repeated in a separate experiment. Data are then normalized and analyzed as previously described (Kim et al., 2013).
For orientation: In a reporter assay the amount or activity of a reporter protein is the signal.

Assay [2] concerns progranulin (PGRN). Put plainly: Progranulin (PGRN) protein expression in Neuro2a whole cell lysates by immunoblotting. The assay is classed as cell-based, mouse. As to conditions: Neuro2a cells, 48 hours; for PGRN levels compared to DMSO: highest concentrations, N=4; for progranulin protein levels by immunoblotting: increasing doses, whole cell lysates. How it is done: FIG. 6. Protein analysis using immuoblotting. Neuro2a cells were treated with in increasing doses for 48 hours and whole cell lysates were analyzed for progranulin (PGRN) protein expression using immunobloting. N=4.
FIG. 7. Graphical analysis of protein quantification using immunoblotting. Whole cell lysates were analyzed for progranulin (PGRN) protein expression using immunoblotting and were graphically plotted to show changes in band intensity. PGRN levels doubled compared to DMSO at the highest concentrations. N=4.
Immunoblotting and Quantification. Cells were lysed in radioimmune precipitation assay buffer (50 mM Tris-HCl (pH 7.4), 150 mM NaCl, 1 mM EDTA, 1% Triton X-100, 1% sodium deoxycholate, 0.1% SDS, and Roche Complete protease inhibitor mixture) and cleared by centrifugation at 20,000×g for 10 min. 0.5-ml cell culture supernatants containing 1% FBS were concentrated by centrifugation at 14,000×g for 50 min in Millipore Amicon Ultra devices (3-kDa cutoff). 15-20 μg of total protein was separated by SDS-PAGE and transferred to nitrocellulose membranes. Membranes were blocked in 5% milk for 1 hr and probed overnight with primary antibodies at 4° C. Mouse progranulin was detected with linker-3 anti-progranulin antibody at 1:5000 dilution, β-actin with anti-β-actin antibody (Sigma A2228) at 1:5000 dilution, human progranulin with anti-PC cell-derived growth factor antibody (Invitrogen) at 1:1000 dilution, and GAPDH with anti-GAPDH antibody (Sigma) at 1:10,000 dilution. Bound IgG was detected by ECL. For quantitative immunoblotting, secondary antibodies labeled with IRDye® infrared dyes and an Odyssey® infrared imager (LI-COR Biosciences) were used following the manufacturer's instructions.
A general note: Immunoblotting shows a protein as a band on a membrane.

For assay [3], the system named is Progranulin. In words: Progranulin protein expression in primary rat neurons (immunoblot, densitometric quantitation). As to conditions: 24 hours, two concentrations. The assay is classed as cell-based. How it is done: FIGS. 1A-B. Neuro2A #48 cells show a marked increase in Progranulin levels due to Isoxazole treatment after 24 hours. (FIG. 1A) Cells were treated with Isoxazole in increasing concentrations ranging from 10 nM to 25 μM. […] (FIG. 1B) Primary rat neurons were treated for 24 hours with DMSO and two concentrations of Isoxazole to visualize the increase in Progranulin protein expression in the relevant in vivo cell type. […] Lower band: actin control. Bands at ˜75 kDa: Progranulin monomer. HMW bands: Progranulin multimers. Densitometric quantitation is shown on the right.
Immunoblotting and Quantification. […] Mouse progranulin was detected with linker-3 anti-progranulin antibody at 1:5000 dilution, β-actin with anti-β-actin antibody (Sigma A2228) at 1:5000 dilution, human progranulin with anti-PC cell-derived growth factor antibody (Invitrogen) at 1:1000 dilution, and GAPDH with anti-GAPDH antibody (Sigma) at 1:10,000 dilution. Bound IgG was detected by ECL. For quantitative immunoblotting, secondary antibodies labeled with IRDye® infrared dyes and an Odyssey® infrared imager (LI-COR Biosciences) were used following the manufacturer's instructions.

Assay [4] concerns progranulin. In words: RT PCR of progranulin mRNA and pre-mRNA in Neuro2A cells. The assay is classed as cell-based, mouse. Particulars: 48 hours, increasing concentrations. How it is done: FIG. 2. Neuro2A cells were treated for 48 hours with increasing concentrations of Isoxazole. RT PCR was conducted to measure increases in progranulin mRNA and pre-mRNA (hnRNA before splicing).
RNA Extraction and Quantitative PCR. Cells in 6-well plates were lysed in 500 μl of TRIzol® reagent/well. cDNA was reverse-transcribed with MultiScribe™ (Applied Biosystems). For some experiments, the Quick-RNA MiniPrep system (Zymo Research, Irvine, Calif.) was used to isolate total RNA. Primer sequences were as follows:
Quantitative PCRs (qPCRs; 10 μl) contained 20 ng of cDNA, 150 nM primer, and 5 μl of Fast SYBR Green PCR Master Mix (Applied Biosystems) and were performed in triplicate on an Applied Biosystems PRISM 7500 Fast sequence detection system. Relative mRNA levels were calculated using U36B or cyclophilin Q primers as internal controls.

Assay [5] concerns Progranulin MEF cells. Put plainly: Lysosome rescue (lysotracker) in Progranulin MEF cells. The assay is classed as cell-based, mouse. As to conditions: one concentration, one trial. Here is the method:
FIGS. 8A-8F. Dose Tested for Lysosome Rescue. Progranulin MEF cells were treated with 1 concentration each of C15 and C19 and levels of lysotracker were analyzed to look for reduction of lysosome levels back to wild type levels. The stained area per cell is measured for compound C15 (FIG. 8A) and C19 (FIG. 8B), area intensity for compound C15 (FIG. 8C) and C19 (FIG. 8D), and total number of lysosomes for compound C15 (FIG. 8E) and C19 (FIG. 8F).
Progranulin MEF cells were treated with one aliquot each of C15 and C19 and levels of lysotracker were analyzed to look for reduction of lysosome levels back to wild type levels.

Molecules are shown by their SMILES.

For the compound `COc1ccccc1C(=O)NNC1C(=O)Nc2ccccc21` (stereo not shown) [Compound C15], in assay [1], the “Luciferase activity over DMSO control” value is on record as “dose dependent increase in luciferase activity”. For the same compound, in assay [2], the “PGRN levels compared to DMSO” value is given as “doubled” and the “progranulin protein levels by immunoblotting” value is “increased progranulin protein levels”.

On to `O=C(CCCCCCC(=O)Nc1ccccc1)NO` [SAHA, reference compound], for which the “Activation of luciferase reporter relative to base line (DMSO)” value in assay [1] (Neuro-2a #48 cells, SAHA 3 μM positive control, 24 hrs) is on record as 4-5 times base line.

As for `c1cnoc1` [Isoxazole], the “Progranulin protein levels vs DMSO control” value in assay [3] was “significant increase over the DMSO control”. Moreover, in assay [4], the “progranulin mRNA” value is “significant increases in a dose dependent manner” and the “progranulin pre-mRNA (hnRNA before splicing)” value was “significant increases in a dose dependent manner”. Moreover, the “Luciferase activity over DMSO control” value in assay [1] is given as “significant increase over control”.

In the case of `CC(C)(C)c1cc2c(c(C(C)(C)C)c1)OC(c1cccc([N+](=O)[O-])c1O)N2` (stereo not shown) [Compound C19], the “lysosome levels (lysotracker)” value in assay [5] is given as “marked decrease in lysosome levels”. For the same compound, the “Luciferase activity over DMSO control” value in assay [1] is reported as “only a small change”. Besides, in assay [2], the “PGRN levels compared to DMSO” value is “doubled” and the “progranulin protein levels by immunoblotting” value is “increased progranulin protein levels”.

Turning to `CCCCCCCCCCCCC/C=C/[C@@H](O)[C@@H](N)COP(=O)([O-])OCC[N+](C)(C)C` [sphingosinephosphorylcholine, reference compound], the “Luciferase activity over DMSO control” value in assay [1] is “increasing levels of luciferase activity over DMSO control”.

The values above are taken from US10149836B2, “Isoxazole treatments for frontotemporal dementia” (The Board of Regents of the University of Texas System, priority 2014, dated 2018).
